Results published in patent US20020058288A1, “TOXOPLASMA GONDII GLYCOCONJUGATES” (priority 1995, published 2002).

How the values were obtained:
[1] = system: binding of mAb T54E10 to the n-butanol species; assay: ELISA inhibition-binding study, mAb T54E10 on n-butanol fraction GPI species; parameters: species or system mouse
Experimental: The GPI species of the n-butanol fraction were coated on microtiter wells at a coat concentration which corresponds to 10^6 tachyzoites per well. […] Ethanolamine (10 mM) itself was able to inhibit the binding of mAb T54E10 by 50%. All other compounds tested were not able to inhibit the binding of the monoclonal antibody. However, the binding of human anti-Toxoplasma antibodies was not affected by any of the compounds tested.
FIG. 6: Inhibition ELISA: Inhibition ELISA using glycolipids contained in the butanol phase as antigen and mAb T54E10

the trypanosome = settings: cited from earlier work

NCCO [Ethanolamine]
Inhibition of the binding of mAb T54E10 ([1]; 10 mM): 50%

CCCOCCCCCCCCCC(=O)O [10-(propoxy) decanoic acid]
Toxicity to the trypanosome (the trypanosome): selective toxicity

NCCOP(=O)(O)O [ethanolamine-phosphate]
Inhibition of binding of mAb T54E10 to n-butanol species ([1]; coat corresponding to 10^6 tachyzoites per well, FIG. 6): inhibited
